Measurements from patent US20070021450A1, “Indanylamino uracils and their use as antioxidants and neuroprotectants” (priority 2004, published 2007).

Columns and labels:
human red blood cells = experiment: Hypochlorite (HOCl) hemolysis of human red blood cells; format: cell-based; conditions: activity compared to ascorbic acid
Method: Hypochlorite (HOCl) hemolysis of human red blood cells. The reaction is based on the ability of O2 radicals to lyse red blood cells. Antioxidant compounds such as ascorbic acid and 4-hydroxy-2,2,6,6-tetramethyl-piperidine-1-oxyl (TEMPOL) prevent membrane damage in a dose dependent manner. All compounds were dissolved at a concentration of 5 mg/ml and aliquots were tested for their ability to prevent lysis.

[1] = Chemical chemiluminescence (without cells): Luminol+SIN-1+selenite+BSA; parameters: concentration or dose not given beside the values; conditions: compared to ascorbic acid
Description: Luminescence was generated in vials containing the following compounds: Luminol+SIN-1(generator of NO radicals)+selenite+BSA. This reaction is inhibited by scavengers of peroxynitrites, as well as scavengers of NO and O2 free radicals.

[2] = test system: EAE (PLP 139-151 challenge); experiment: PLP induced experimental allergic encephalomyelitis (EAE) in SJL mice; format: in vivo; parameters: key to Mean maximal score / Mean score (group mean score): clinical score 0 = no signs to 6 = death; conditions: for effect on EAE, in words: 50 mg/kg/day po
Method: Female SJL mice (12 weeks) were inoculated with the encephalitogenic peptide of proteolipid protein (PLP 139-151) synthesized to a purity of 70% by Sigma (Israel). 150 μg of the peptide were emulsified in complete Freund's adjuvant (CFA) (Difco laboratories), supplemented with killed mycobacteria (5 mg/ml) and pertussis toxin (200 ng) (Sigma), given subcutaneously at day of inoculation only.
Mice were kept SPF conditions and given water and food ad libitum. Mice were daily observed for clinical signs from day 10 to day 18-21 post inoculation.
The clinical score used is as follows: 0—no clinical signs; 0.5—loss of right reflex; 1—distal limp tail; 2—complete limp tail; 3—ataxia; 4—early paralysis (one hind limb); 5—complete hind legs paralysis and moribund state; 6—death.
Compounds were dissolved in 2-hydroxypropyl beta cyclodextrin (40% water solution). Treatment started at day 1 post inoculation. The compounds (50 mg/kg) and vehicle were given orally by gavage every day until day 20 post inoculation.
Compounds 6 and 7 were given orally to mice challenged with PLP, at a dose of 50 mg/kg/day, p.o. The results are presented in Table 3a and in FIGS. 2 and 3. The effect of Compound 6 on all parameters of the disease was more pronounced as compared to the control group.

[3] = test system: EAE (MSCH emulsion induction); experiment: EAE in CSJL mice, acute model (MSCH/CFA induction); format: in vivo; conditions: for Mortality / Incidence: 30 days, CSJL mice; for Mean Duration: duration of disease; for % inhibition 3: inhibition of GMS vs control; for % inhibition 2: inhibition of MMS vs control; for % inhibition 1: inhibition of incidence vs control; for GMS value: mean group score; for MMS value: mean maximal score
neutrophils = experiment: PMA-induced oxidative burst in neutrophils (DCFH, FACS); format: cell-based; conditions: PMA 10 ng/ml 30 min, compared to ascorbic acid
Method: PMA-induced oxidative burst in neutrophils: The cells were activated with PMA (10 ng/ml) for 30 min and incubated with 2,7-dichlorodihydrofluorescin diacetate (DCFH), which, in the presence of O2 radicals and peroxynitrites, is converted to a fluorescent compound. The fluorescent cells are detected in a cell sorter (FACS).

[4] = Reaction with 1,1-diphenyl-2-picrylhydrazyl (DPPNH), radical scavenging; format: physicochemical; conditions: equimolar amounts; for DPPNH: radical scavenging, grades 0 to +++, key not given; for DPPNH consumed: reacted instantaneously
Method: (§1) Reaction with 1,1-diphenyl-2-picrylhydrazyl (DPPNH) is indicative of radical scavenging ability. The compounds were mixed with DPPNH (in equimolar amounts) and the consumption rate of DPPNH was measured. Compounds 3 and 4 reacted instantaneously, consuming 70% and 20% of DPPNH respectively (Table 2). The oxidation potential of the compounds was measured by cyclic voltametry.

[5] = Oxidation potential by cyclic voltametry; format: physicochemical; conditions: for oxidation potential (cyclic voltametry), in words: pH 7.2
Method: as §1

EAE = experiment: Treatment of EAE with TEMPOL (FIG. 1); format: in vivo, mice; conditions: Tempol 100 mg and 200 mg groups
Description: The dosage of TEMPOL used here was […] higher than the dosages of compounds 6 and 7 below. The experiments were terminated arbitrarily at day 18 post-immunization. The course of EAE in different groups of animals varies. Consequently, recovery time is variable, typically by two or three days.

[6] = test system: EAE (PLP 139-151 challenge); experiment: PLP induced experimental allergic encephalomyelitis (EAE) in SJL mice; format: in vivo; conditions: single dose daily, po
[7] = Table 3a: 50 mg/kg/day po, single dose daily, PLP challenge
[8] = 25.0 mg/kg × 2 per day (single dose on weekends), oral
[9] = Table 3b: 50 mg/kg, single dose daily, po
[10] = Table 3b: 50 mg/kg, single dose daily, po, only mice that develop disease
[11] = Table 3a: 50 mg/kg/day po, PLP challenge, mean ± SEM
[12] = Table 3b: 12.5 mg/kg, single dose daily, po
[13] = Table 3b: 100 mg/kg, single dose daily, po

With `CN(C)c1cccc2c1CCC2Nc1cc(=O)[nH]c(=O)[nH]1.Cl` (centres unmarked) [Compound 6, 6-(4-dimethylamino-indan-1-ylamino)-1H-pyrimidine-2,4-dione HCl] the HOCl % lysis (human red blood cells) was 44%, the “% Chemiluminescence inhibition” value [1] was 56% and the “effect on EAE, in words” value ([2]; PLP challenge) was “significant beneficial effect on EAE”. The “(# dead)” value [2, 7] was “(4)”, the Incidence [2, 7] was 10/14 and the Mortality [3, 8] was 4/10. For the same compound, the Incidence ([3]; 25.0 mg/kg × 2 per day, oral) was 7/10, the Incidence ([3]; 50.0 mg/kg once a day, oral) was 7/10 and the Mortality ([3]; 50.0 mg/kg once a day, oral) was 5/10. The “Mean Duration” value ([3]; 25.0 mg/kg × 2, oral) was 11.1 ± 8.6 days, the “Mean Duration” value ([3]; 50.0 mg/kg once a day, oral) was 11.3 ± 8.5 days and the “% inhibition 3” value ([3]; 25.0 mg/kg × 2, oral) was 40.6%. For the same compound, the “% inhibition 3” value ([3]; 50.0 mg/kg once a day, oral) was 31.3%, the “% inhibition 2” value ([3]; 25.0 mg/kg × 2, oral) was 34.1% and the “% inhibition 2” value ([3]; 50.0 mg/kg once a day, oral) was 26.8%. The “% inhibition 1” value ([3]; 25.0 mg/kg × 2, oral) was 30.0%, the “% inhibition 1” value ([3]; 50.0 mg/kg once a day, oral) was 30.0% and the GMS value ([3]; 25.0 mg/kg × 2, oral) was 1.9 ± 1.9. For the same compound, the GMS value ([3]; 50.0 mg/kg once a day, oral) was 2.2 ± 1.8, the MMS value ([3]; 25.0 mg/kg × 2, oral) was 2.7 ± 2.2 and the MMS value ([3]; 50.0 mg/kg once a day, oral) was 3.0 ± 2.3.

For `CC1(C)CC(O)CC(C)(C)N1O` [N-Hydroxy-tetramethyl-4-piperidinol, reference compound], the HOCl % lysis (human red blood cells) was 52%, the “% Chemiluminescence inhibition” value [1] was 42% and the “PMA % of cells activated” value (neutrophils) was 60%.

With `CC1(C)CC(O)CC(C)(C)N1` [Tetramethyl-4-piperidinol, reference compound] the HOCl % lysis (human red blood cells) was 0%, the “% Chemiluminescence inhibition” value [1] was 1.2% and the “PMA % of cells activated” value (neutrophils) was 30%.

In the case of `Nc1cc(=O)[nH]c(=O)n1C1CCc2ccccc21` (centres unmarked) [Compound 1, 6-amino-1-indan-1-yl-1H-pyrimidine-2,4-dione], the HOCl % lysis (human red blood cells) is reported as 75%, the “% Chemiluminescence inhibition” value [1] is reported as 0% and the “PMA % of cells activated” value (neutrophils) is reported as 0%. The DPPNH [4] was 0, the “oxidation potential (cyclic voltametry), in words” value (“oxidation potential” below) [5] was “reducing action, but to a lesser extent than compound 3” and the Incidence [2, 9] was 6/8. For the same compound, the Mean disease duration [2, 9] was 5.57 ± 1.72, the Mean maximal score [2, 9] was 4.2 and the Mean score [2, 9] was 3.4 ± 0.2. For the same compound, the “Mean day of onset” value [2, 10] was 12.5 ± 0.7.

In the case of `CC1(C)CC(O)CC(C)(C)N1[O]` [4-hydroxy-2,2,6,6-tetramethyl-piperidine-1-oxyl, reference compound], the HOCl % lysis (human red blood cells) is reported as 50%, the “% Chemiluminescence inhibition” value [1] is reported as 78% and the “PMA % of cells activated” value (neutrophils) is reported as 80%. The “manifestation of clinical signs of EAE, in words” value (EAE) was “has the ability to inhibit the manifestation of clinical signs of EAE”.

With `Nc1c(N)n(C2CCc3ccccc32)c(=O)[nH]c1=O` (centres unmarked) [Compound 3, 5,6-diamino-1-indan-1-yl-1H-pyrimidine-2,4-dione] the HOCl % lysis (human red blood cells) was 72%, the “% Chemiluminescence inhibition” value [1] was 38% and the “PMA % of cells activated” value (neutrophils) was 30%. For the same compound, the DPPNH consumed [4] was 70%, the “oxidation potential” value [5] was “strong electron donor activity” and the melting point was 218 °C (dec.).

In the case of `CN(C)c1ccc2c(c1)C(Nc1cc(=O)[nH]c(=O)[nH]1)CC2.Cl` (centres unmarked) [Compound 7, 6-(6-dimethylamino-indan-1-ylamino)-1H-pyrimidine-2,4-dione HCl], the HOCl % lysis (human red blood cells) is reported as 55%, the “% Chemiluminescence inhibition” value [1] is reported as 62% and the “effect on EAE, in words” value ([2]; PLP challenge) is reported as “significant beneficial effect on EAE”. For the same compound, the “Mean day of onset” value [2, 11] was 14.8 ± 0.94, the Mean disease duration [2, 11] was 4.1 ± 0.84 and the Mean maximal score [2, 11] was 4.3 ± 0.9. The “Mean score (group mean score)” value [2, 11] was 1.6 ± 0.27, the “(# dead)” value [2, 7] was “(4)” and the Incidence [2, 7] was 11/14. The Mortality [3, 8] was 8/10, the Incidence ([3]; 25.0 mg/kg × 2 per day, oral) was 8/10 and the Incidence ([3]; 50.0 mg/kg once a day, oral) was 7/10. For the same compound, the Mortality ([3]; 50.0 mg/kg once a day, oral) was 7/10, the “Mean Duration” value ([3]; 25.0 mg/kg × 2, oral) was 13.9 ± 7.5 days and the “Mean Duration” value ([3]; 50.0 mg/kg once a day, oral) was 12.7 ± 8.8 days. The “% inhibition 3” value ([3]; 25.0 mg/kg × 2, oral) was 9.4%, the “% inhibition 3” value ([3]; 50.0 mg/kg once a day, oral) was 15.6% and the “% inhibition 2” value ([3]; 25.0 mg/kg × 2, oral) was 2.4%. The “% inhibition 2” value ([3]; 50.0 mg/kg once a day, oral) was 14.6%, the “% inhibition 1” value ([3]; 25.0 mg/kg × 2, oral) was 20.0% and the “% inhibition 1” value ([3]; 50.0 mg/kg once a day, oral) was 30.0%. For the same compound, the GMS value ([3]; 25.0 mg/kg × 2, oral) was 2.9 ± 1.6, the GMS value ([3]; 50.0 mg/kg once a day, oral) was 2.7 ± 1.9 and the MMS value ([3]; 25.0 mg/kg × 2, oral) was 4.0 ± 2.1. For the same compound, the MMS value ([3]; 50.0 mg/kg once a day, oral) was 3.5 ± 2.4.

With `Nc1c(NC2CCc3ccccc32)[nH]c(=O)[nH]c1=O` (centres unmarked) [Compound 4, 5-amino-6-(indan-1-ylamino)-1H-pyrimidine-2,4-dione] the DPPNH consumed [4] was 20%, the “Cyclic voltametry - AW” value ([5]; anodic wave, grades 0 to +++, key not given) was 0 and the melting point was over 150 °C.

In the case of `O=c1cc(NC2CCc3ccccc32)[nH]c(=O)[nH]1` (centres unmarked) [Compound 5, 6-(indan-1-ylamino)-1H-pyrimidine-2,4-dione], the HOCl % lysis (human red blood cells) is reported as 100%, the “% Chemiluminescence inhibition” value [1] is reported as 75% and the “PMA % of cells activated” value (neutrophils) is reported as 80%. The DPPNH [4] was 0, the “oxidation potential” value [5] was “reducing action, but to a lesser extent than compound 3” and the Incidence [2, 12] was 18/18. For the same compound, the Mean maximal score [2, 12] was 4.5, the Incidence [2, 9] was 14/16 and the Mean disease duration [2, 9] was 5.64 ± 1.55. For the same compound, the Mean maximal score [2, 9] was 5, the Mean score [2, 9] was 3.48 ± 0.3 and the “Mean day of onset” value [2, 10] was 12.9 ± 1.35. The Incidence [2, 13] was 5/5, the Mean maximal score [2, 13] was 5 and the Mean score [2, 13] was 3.2 ± 0.25. For the same compound, the “Mean day of onset” value ([2]; Table 3b:, single dose daily, po, only mice that develop disease) was 11.8 ± 1.1, the Mean disease duration ([6]; Table 3b: 12.5 mg/kg) was 6.06 ± 1.7 and the Mean score ([6]; Table 3b: 12.5 mg/kg) was 3.8 ± 0.35. The “Mean day of onset” value ([6]; Table 3b: 12.5 mg/kg, only mice that develop disease) was 12 ± 0.68 and the Mean disease duration ([6]; Table 3b: 100 mg/kg) was 4.4 ± 1.7.

In the case of `O=C1O[C@H]([C@@H](O)CO)C(O)=C1O` [Ascorbic acid, reference compound], the HOCl % lysis (human red blood cells) is reported as 100%, the “% Chemiluminescence inhibition” value [1] is reported as 100% and the “PMA % of cells activated” value (neutrophils) is reported as 100%.
